# Laboratory results from PubChem BioAssay AID1963968 (Molecular Pharmacology Branch, DTP, NCI, 2024).
# System: 945468-187-T-J3-PDC spheroids with HUVEC/MSC, viability
# Test: Anticancer human tumor 945468-187-T-J3-PDC patient-derived rectal carcinoma cell line growth inhibition [PI3K]
# Conditions: for IC50: curve of first compound; for viability, T/C: stronger effect = lower value
# Outline: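 Stroma-containing spheroids: tumor line, pooled-donor HUVEC, hMSC. Treatments: targeted agents with PI3K inhibitors. Dosing: clinically relevant, half-log spacing, 10 microM ceiling without known Cmax. Read-out: cell viability.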
# [1] = second compound 0.0316 µM, first compound 0.0316 µM
# [2] = second compound 0.0316 µM, first compound 0.1 µM
# [3] = second compound 0.0316 µM, first compound 0.316 µM
# [4] = second compound 0.0316 µM, first compound 1 µM
# [5] = second compound 0.0316 µM, first compound 3.16 µM
# [6] = second compound 0.0316 µM, first compound 10 µM
# [7] = second compound 0.1 µM, first compound 0.0316 µM
# [8] = second compound 0.1 µM, first compound 0.1 µM
# [9] = second compound 0.1 µM, first compound 0.316 µM
# [10] = second compound 0.1 µM, first compound 1 µM
# [11] = second compound 0.1 µM, first compound 3.16 µM
# [12] = second compound 0.1 µM, first compound 10 µM
# [13] = second compound 0.316 µM, first compound 0.0316 µM
# [14] = second compound 0.316 µM, first compound 0.1 µM
# [15] = second compound 0.316 µM, first compound 0.316 µM
# [16] = second compound 0.316 µM, first compound 1 µM
# [17] = second compound 0.316 µM, first compound 3.16 µM
# [18] = second compound 0.316 µM, first compound 10 µM
# [19] = second compound 1 µM, first compound 0.0316 µM
# [20] = second compound 1 µM, first compound 0.1 µM
# [21] = second compound 1 µM, first compound 0.316 µM
# [22] = second compound 1 µM, first compound 1 µM
# [23] = second compound 1 µM, first compound 3.16 µM
# [24] = second compound 1 µM, first compound 10 µM
# [25] = second compound 3.16 µM, first compound 0.0316 µM
# [26] = second compound 3.16 µM, first compound 0.1 µM
# [27] = second compound 3.16 µM, first compound 0.316 µM
# [28] = second compound 3.16 µM, first compound 1 µM
# [29] = second compound 3.16 µM, first compound 3.16 µM
# [30] = second compound 3.16 µM, first compound 10 µM
# [31] = second compound 10 µM, first compound 0.0316 µM
# [32] = second compound 10 µM, first compound 0.1 µM
# [33] = second compound 10 µM, first compound 0.316 µM
# [34] = second compound 10 µM, first compound 1 µM
# [35] = second compound 10 µM, first compound 3.16 µM
# [36] = second compound 10 µM, first compound 10 µM
# 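Note: spheroids exposed to agents for 7 days before viability read.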
# 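Throughout, for viability, T/C: 100% = DMSO vehicle control viability.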
compound,measurement,setting,value
CCCS(=O)(=O)Nc1ccc(F)c(C(=O)c2c[nH]c3ncc(-c4ccc(Cl)cc4)cc23)c1F + CC(Nc1ncnc2nc[nH]c12)c1cc2cccc(Cl)c2c(=O)n1-c1ccccc1,IC50,second compound 0.0316 µM,8.2 µM
same,IC50,second compound 0.1 µM,> 10 µM
same,IC50,second compound 0.316 µM,> 10 µM
same,IC50,second compound 1 µM,> 10 µM
same,IC50,second compound 3.16 µM,> 10 µM
same,IC50,second compound 10 µM,> 10 µM
same,"viability, T/C",[1],100%
same,"viability, T/C",[2],96.7%
same,"viability, T/C",[3],103%
same,"viability, T/C",[4],101%
same,"viability, T/C",[5],99.2%
same,"viability, T/C",[6],39.8%
same,"viability, T/C",[7],104%
same,"viability, T/C",[8],95.8%
same,"viability, T/C",[9],93.8%
same,"viability, T/C",[10],91.3%
same,"viability, T/C",[11],111%
same,"viability, T/C",[12],77.9%
same,"viability, T/C",[13],102%
same,"viability, T/C",[14],101%
same,"viability, T/C",[15],91.7%
same,"viability, T/C",[16],99.3%
same,"viability, T/C",[17],98.3%
same,"viability, T/C",[18],60.6%
same,"viability, T/C",[19],88.6%
same,"viability, T/C",[20],92.8%
same,"viability, T/C",[21],89.4%
same,"viability, T/C",[22],92%
same,"viability, T/C",[23],101%
same,"viability, T/C",[24],68.7%
same,"viability, T/C",[25],92.6%
same,"viability, T/C",[26],91.3%
same,"viability, T/C",[27],102%
same,"viability, T/C",[28],105%
same,"viability, T/C",[29],105%
same,"viability, T/C",[30],56.5%
same,"viability, T/C",[31],91.3%
same,"viability, T/C",[32],99.4%
same,"viability, T/C",[33],94.8%
same,"viability, T/C",[34],92.2%
same,"viability, T/C",[35],105%
same,"viability, T/C",[36],94.1%
C[C@@H](NC(=O)c1ncnc(N)c1Cl)c1ncc(C(=O)Nc2cc(C(F)(F)F)c(Cl)cn2)s1 + CC(Nc1ncnc2nc[nH]c12)c1cc2cccc(Cl)c2c(=O)n1-c1ccccc1,IC50,second compound 0.0316 µM,> 10 µM
same,IC50,second compound 0.1 µM,> 10 µM
same,IC50,second compound 0.316 µM,> 10 µM
same,IC50,second compound 1 µM,> 10 µM
same,IC50,second compound 3.16 µM,> 10 µM
same,IC50,second compound 10 µM,> 10 µM
same,"viability, T/C",[1],98%
same,"viability, T/C",[2],87.3%
same,"viability, T/C",[3],95.9%
same,"viability, T/C",[4],101%
same,"viability, T/C",[5],104%
same,"viability, T/C",[6],105%
same,"viability, T/C",[7],106%
same,"viability, T/C",[8],109%
same,"viability, T/C",[9],97.7%
same,"viability, T/C",[10],96.5%
same,"viability, T/C",[11],94.7%
same,"viability, T/C",[12],103%
same,"viability, T/C",[13],95.7%
same,"viability, T/C",[14],115%
same,"viability, T/C",[15],108%
same,"viability, T/C",[16],103%
same,"viability, T/C",[17],98.7%
same,"viability, T/C",[18],96.6%
same,"viability, T/C",[19],101%
same,"viability, T/C",[20],101%
same,"viability, T/C",[21],103%
same,"viability, T/C",[22],96.2%
same,"viability, T/C",[23],102%
same,"viability, T/C",[24],86.5%
same,"viability, T/C",[25],104%
same,"viability, T/C",[26],105%
same,"viability, T/C",[27],92.7%
same,"viability, T/C",[28],106%
same,"viability, T/C",[29],96.4%
same,"viability, T/C",[30],96%
same,"viability, T/C",[31],101%
same,"viability, T/C",[32],99.7%
same,"viability, T/C",[33],92.5%
same,"viability, T/C",[34],108%
same,"viability, T/C",[35],98.8%
same,"viability, T/C",[36],93.3%
Cn1ncnc1[C@H]1c2n[nH]c(=O)c3cc(F)cc(c23)N[C@@H]1c1ccc(F)cc1 + CC(Nc1ncnc2nc[nH]c12)c1cc2cccc(Cl)c2c(=O)n1-c1ccccc1,IC50,second compound 0.0316 µM,> 0.1 µM
same,IC50,second compound 0.1 µM,> 0.1 µM
same,IC50,second compound 0.316 µM,> 0.1 µM
same,IC50,second compound 1 µM,> 0.1 µM
same,IC50,second compound 3.16 µM,> 0.1 µM
same,IC50,second compound 10 µM,> 0.1 µM
same,"viability, T/C","second compound 0.0316 µM, first compound 0.000316 µM",105%
same,"viability, T/C","second compound 0.0316 µM, first compound 0.001 µM",87.4%
same,"viability, T/C","second compound 0.0316 µM, first compound 0.00316 µM",91.7%
same,"viability, T/C","second compound 0.0316 µM, first compound 0.01 µM",82.9%
same,"viability, T/C",[1],101%
same,"viability, T/C",[2],92.4%
same,"viability, T/C","second compound 0.1 µM, first compound 0.000316 µM",94.2%
same,"viability, T/C","second compound 0.1 µM, first compound 0.001 µM",87.8%
same,"viability, T/C","second compound 0.1 µM, first compound 0.00316 µM",97.8%
same,"viability, T/C","second compound 0.1 µM, first compound 0.01 µM",85.6%
same,"viability, T/C",[7],89.3%
same,"viability, T/C",[8],97.8%
same,"viability, T/C","second compound 0.316 µM, first compound 0.000316 µM",97.5%
same,"viability, T/C","second compound 0.316 µM, first compound 0.001 µM",95.8%
same,"viability, T/C","second compound 0.316 µM, first compound 0.00316 µM",90.1%
same,"viability, T/C","second compound 0.316 µM, first compound 0.01 µM",103%
same,"viability, T/C",[13],88%
same,"viability, T/C",[14],101%
same,"viability, T/C","second compound 1 µM, first compound 0.000316 µM",85.2%
same,"viability, T/C","second compound 1 µM, first compound 0.001 µM",109%
same,"viability, T/C","second compound 1 µM, first compound 0.00316 µM",98.5%
same,"viability, T/C","second compound 1 µM, first compound 0.01 µM",86.8%
same,"viability, T/C",[19],104%
same,"viability, T/C",[20],105%
same,"viability, T/C","second compound 3.16 µM, first compound 0.000316 µM",103%
same,"viability, T/C","second compound 3.16 µM, first compound 0.001 µM",99.8%
same,"viability, T/C","second compound 3.16 µM, first compound 0.00316 µM",95.1%
same,"viability, T/C","second compound 3.16 µM, first compound 0.01 µM",100%
same,"viability, T/C",[25],102%
same,"viability, T/C",[26],104%
same,"viability, T/C","second compound 10 µM, first compound 0.000316 µM",101%
same,"viability, T/C","second compound 10 µM, first compound 0.001 µM",97.5%
same,"viability, T/C","second compound 10 µM, first compound 0.00316 µM",106%
same,"viability, T/C","second compound 10 µM, first compound 0.01 µM",95.7%
same,"viability, T/C",[31],96.9%
same,"viability, T/C",[32],102%
